Experimental data as given in a compilation of properties of binary mixtures (doi:10.1016/j.molliq.2021.118200).

Assay: xn = mol fraction of the nth substance listed
Settings: 100 kPa

Work on `CC(=O)[O-].COCCn1cc[n+](C)c1` + O yielded an electrical conductivity (288.15 K, x1 = 0.8396) of 0.351 S/m, a viscosity (288.15 K, x1 = 0.8396) of 74.3 mPa·s and an electrical conductivity (288.15 K, x1 = 0.8663) of 0.313 S/m. For the same compound, the viscosity (288.15 K, x1 = 0.8663) was 76.6 mPa·s, the electrical conductivity (288.15 K, x1 = 0.8945) was 0.278 S/m and the viscosity (288.15 K, x1 = 0.8945) was 78.6 mPa·s. The electrical conductivity (288.15 K, x1 = 0.9225) was 0.244 S/m, the viscosity (288.15 K, x1 = 0.9225) was 80.4 mPa·s and the electrical conductivity (288.15 K, x1 = 0.9511) was 0.215 S/m. The viscosity (288.15 K, x1 = 0.9511) was 82.1 mPa·s, the electrical conductivity (288.15 K, x1 = 1) was 0.162 S/m and the viscosity (288.15 K, x1 = 1) was 85.1 mPa·s. It also gave an electrical conductivity (293.15 K, x1 = 0.8663) of 0.373 S/m, a viscosity (293.15 K, x1 = 0.8663) of 56.95 mPa·s and an electrical conductivity (293.15 K, x1 = 0.9225) of 0.3 S/m. For the same compound, the viscosity (293.15 K, x1 = 0.9225) was 60.54 mPa·s, the electrical conductivity (293.15 K, x1 = 0.9511) was 0.268 S/m and the viscosity (293.15 K, x1 = 0.9511) was 62.23 mPa·s. For the same compound, the electrical conductivity (293.15 K, x1 = 1) was 0.215 S/m, the viscosity (293.15 K, x1 = 1) was 65.09 mPa·s and the electrical conductivity (298.15 K, x1 = 0.8396) was 0.476 S/m. The viscosity (298.15 K, x1 = 0.8396) was 41.38 mPa·s, the electrical conductivity (298.15 K, x1 = 0.8663) was 0.437 S/m and the viscosity (298.15 K, x1 = 0.8663) was 43.06 mPa·s. For the same compound, the electrical conductivity (298.15 K, x1 = 0.8945) was 0.405 S/m, the viscosity (298.15 K, x1 = 0.8945) was 44.51 mPa·s and the electrical conductivity (298.15 K, x1 = 0.9225) was 0.371 S/m. For the same compound, the viscosity (298.15 K, x1 = 0.9225) was 45.75 mPa·s, the electrical conductivity (298.15 K, x1 = 0.9511) was 0.342 S/m and the viscosity (298.15 K, x1 = 0.9511) was 46.93 mPa·s. It also gave an electrical conductivity (298.15 K, x1 = 1) of 0.29 S/m, a viscosity (298.15 K, x1 = 1) of 49.12 mPa·s and an electrical conductivity (303.15 K, x1 = 0.8396) of 0.564 S/m. It also gave a viscosity (303.15 K, x1 = 0.8396) of 28.47 mPa·s, an electrical conductivity (303.15 K, x1 = 0.8663) of 0.529 S/m and an electrical conductivity (303.15 K, x1 = 0.9225) of 0.466 S/m. The viscosity (303.15 K, x1 = 0.9225) was 34.3 mPa·s, the electrical conductivity (303.15 K, x1 = 0.9511) was 0.439 S/m and the viscosity (303.15 K, x1 = 0.9511) was 35.83 mPa·s. The electrical conductivity (303.15 K, x1 = 1) was 0.39 S/m, the viscosity (303.15 K, x1 = 1) was 38.77 mPa·s and the electrical conductivity (308.15 K, x1 = 0.8396) was 0.673 S/m. The viscosity (308.15 K, x1 = 0.8396) was 24.95 mPa·s, the electrical conductivity (308.15 K, x1 = 0.8945) was 0.604 S/m and the viscosity (308.15 K, x1 = 0.8945) was 26.78 mPa·s. For the same compound, the electrical conductivity (308.15 K, x1 = 0.9225) was 0.572 S/m, the viscosity (308.15 K, x1 = 0.9225) was 27.6 mPa·s and the electrical conductivity (308.15 K, x1 = 0.9511) was 0.541 S/m. The viscosity (308.15 K, x1 = 0.9511) was 28.32 mPa·s, the electrical conductivity (308.15 K, x1 = 1) was 0.491 S/m and the viscosity (308.15 K, x1 = 1) was 29.64 mPa·s. It also gave an electrical conductivity (313.15 K, x1 = 0.8396) of 0.807 S/m, a viscosity (313.15 K, x1 = 0.8396) of 20.97 mPa·s and an electrical conductivity (313.15 K, x1 = 0.8663) of 0.773 S/m. For the same compound, the viscosity (313.15 K, x1 = 0.8663) was 21.65 mPa·s, the electrical conductivity (313.15 K, x1 = 0.8945) was 0.733 S/m and the viscosity (313.15 K, x1 = 0.8945) was 22.3 mPa·s. For the same compound, the electrical conductivity (313.15 K, x1 = 0.9225) was 0.698 S/m, the viscosity (313.15 K, x1 = 0.9225) was 22.87 mPa·s and the electrical conductivity (313.15 K, x1 = 0.9511) was 0.666 S/m. For the same compound, the viscosity (313.15 K, x1 = 0.9511) was 23.4 mPa·s, the electrical conductivity (313.15 K, x1 = 1) was 0.611 S/m and the viscosity (313.15 K, x1 = 1) was 24.35 mPa·s. For the same compound, the electrical conductivity (318.15 K, x1 = 0.8396) was 0.963 S/m, the viscosity (318.15 K, x1 = 0.8396) was 17.28 mPa·s and the electrical conductivity (318.15 K, x1 = 0.8945) was 0.886 S/m. The viscosity (318.15 K, x1 = 0.8945) was 18.26 mPa·s, the electrical conductivity (318.15 K, x1 = 0.9225) was 0.851 S/m and the viscosity (318.15 K, x1 = 0.9225) was 18.74 mPa·s. It also gave an electrical conductivity (318.15 K, x1 = 0.9511) of 0.814 S/m, a viscosity (318.15 K, x1 = 0.9511) of 19.18 mPa·s and an electrical conductivity (318.15 K, x1 = 1) of 0.759 S/m. It also gave a viscosity (318.15 K, x1 = 1) of 19.91 mPa·s.

In the case of `CCC(=O)[O-].COCCn1cc[n+](C)c1` + O, the electrical conductivity (288.15 K, x1 = 0.8582) is reported as 0.278 S/m, the viscosity (288.15 K, x1 = 0.8582) is reported as 88.4 mPa·s and the electrical conductivity (288.15 K, x1 = 0.9175) is reported as 0.201 S/m. The viscosity (288.15 K, x1 = 0.9175) was 104.5 mPa·s, the electrical conductivity (288.15 K, x1 = 0.9479) was 0.169 S/m and the viscosity (288.15 K, x1 = 0.9479) was 113.9 mPa·s. For the same compound, the electrical conductivity (293.15 K, x1 = 0.8302) was 0.362 S/m, the viscosity (293.15 K, x1 = 0.8302) was 61.46 mPa·s and the electrical conductivity (293.15 K, x1 = 0.8582) was 0.324 S/m. For the same compound, the viscosity (293.15 K, x1 = 0.8582) was 66.3 mPa·s, the electrical conductivity (293.15 K, x1 = 0.8879) was 0.289 S/m and the viscosity (293.15 K, x1 = 0.8879) was 72.1 mPa·s. It also gave an electrical conductivity (293.15 K, x1 = 0.9175) of 0.254 S/m, a viscosity (293.15 K, x1 = 0.9175) of 78.1 mPa·s and an electrical conductivity (293.15 K, x1 = 1) of 0.166 S/m. For the same compound, the viscosity (293.15 K, x1 = 1) was 93.3 mPa·s, the electrical conductivity (298.15 K, x1 = 0.8582) was 0.387 S/m and the viscosity (298.15 K, x1 = 0.8582) was 50.5 mPa·s. The electrical conductivity (298.15 K, x1 = 0.8879) was 0.352 S/m, the viscosity (298.15 K, x1 = 0.8879) was 54.67 mPa·s and the electrical conductivity (298.15 K, x1 = 0.9175) was 0.315 S/m. For the same compound, the viscosity (298.15 K, x1 = 0.9175) was 59.23 mPa·s, the electrical conductivity (303.15 K, x1 = 0.8302) was 0.523 S/m and the viscosity (303.15 K, x1 = 0.8302) was 37.29 mPa·s. The electrical conductivity (303.15 K, x1 = 0.8879) was 0.448 S/m, the viscosity (303.15 K, x1 = 0.8879) was 42.96 mPa·s and the electrical conductivity (303.15 K, x1 = 0.9175) was 0.411 S/m. It also gave a viscosity (303.15 K, x1 = 0.9175) of 46.22 mPa·s, an electrical conductivity (303.15 K, x1 = 0.9479) of 0.378 S/m and a viscosity (303.15 K, x1 = 0.9479) of 49.63 mPa·s. For the same compound, the electrical conductivity (303.15 K, x1 = 1) was 0.32 S/m, the viscosity (303.15 K, x1 = 1) was 54.2 mPa·s and the electrical conductivity (308.15 K, x1 = 0.8302) was 0.625 S/m. The viscosity (308.15 K, x1 = 0.8302) was 29.69 mPa·s, the electrical conductivity (308.15 K, x1 = 0.8582) was 0.584 S/m and the viscosity (308.15 K, x1 = 0.8582) was 31.71 mPa·s. It also gave an electrical conductivity (308.15 K, x1 = 0.8879) of 0.548 S/m, a viscosity (308.15 K, x1 = 0.8879) of 33.88 mPa·s and an electrical conductivity (308.15 K, x1 = 0.9175) of 0.511 S/m. For the same compound, the viscosity (308.15 K, x1 = 0.9175) was 36.42 mPa·s, the electrical conductivity (308.15 K, x1 = 0.9479) was 0.479 S/m and the viscosity (308.15 K, x1 = 0.9479) was 39.09 mPa·s. For the same compound, the electrical conductivity (308.15 K, x1 = 1) was 0.42 S/m, the viscosity (308.15 K, x1 = 1) was 42.49 mPa·s and the electrical conductivity (313.15 K, x1 = 0.8302) was 0.724 S/m. For the same compound, the viscosity (313.15 K, x1 = 0.8302) was 24.42 mPa·s, the electrical conductivity (313.15 K, x1 = 0.8582) was 0.687 S/m and the viscosity (313.15 K, x1 = 0.8582) was 25.86 mPa·s. The electrical conductivity (313.15 K, x1 = 0.8879) was 0.653 S/m, the viscosity (313.15 K, x1 = 0.8879) was 27.57 mPa·s and the electrical conductivity (313.15 K, x1 = 0.9175) was 0.616 S/m. The viscosity (313.15 K, x1 = 0.9175) was 29.53 mPa·s, the electrical conductivity (313.15 K, x1 = 1) was 0.532 S/m and the viscosity (313.15 K, x1 = 1) was 33.96 mPa·s. For the same compound, the electrical conductivity (318.15 K, x1 = 0.8302) was 0.881 S/m, the viscosity (318.15 K, x1 = 0.8302) was 18.8 mPa·s and the electrical conductivity (318.15 K, x1 = 0.8879) was 0.799 S/m. For the same compound, the viscosity (318.15 K, x1 = 0.8879) was 21.28 mPa·s, the electrical conductivity (318.15 K, x1 = 0.9175) was 0.759 S/m and the viscosity (318.15 K, x1 = 0.9175) was 22.93 mPa·s. It also gave an electrical conductivity (318.15 K, x1 = 1) of 0.663 S/m and a viscosity (318.15 K, x1 = 1) of 26.51 mPa·s.
